One data set concerns the target T1, human EAAT3 (Homo sapiens, UniProt P43005).
T1 construct: expressed in transfected cells
T1 sequence (P43005 1-524): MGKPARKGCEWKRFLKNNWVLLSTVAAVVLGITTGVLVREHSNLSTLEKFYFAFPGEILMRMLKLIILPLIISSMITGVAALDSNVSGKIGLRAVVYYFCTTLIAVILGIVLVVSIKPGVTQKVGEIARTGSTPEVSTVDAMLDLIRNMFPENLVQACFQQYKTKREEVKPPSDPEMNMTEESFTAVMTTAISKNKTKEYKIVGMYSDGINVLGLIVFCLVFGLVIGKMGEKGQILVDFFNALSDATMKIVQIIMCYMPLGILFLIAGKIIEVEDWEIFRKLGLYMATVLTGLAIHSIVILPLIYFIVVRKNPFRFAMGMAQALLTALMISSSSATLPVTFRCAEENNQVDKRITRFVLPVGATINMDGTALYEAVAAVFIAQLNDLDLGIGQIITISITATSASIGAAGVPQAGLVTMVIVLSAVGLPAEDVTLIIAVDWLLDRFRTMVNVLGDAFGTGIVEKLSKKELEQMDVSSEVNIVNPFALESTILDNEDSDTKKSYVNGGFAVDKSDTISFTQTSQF
Description: FLIPR Membrane Potential (FMP) assay, antagonist potency at human EAAT3. Format: cell-based. The note with it: HEK-293 cells stably expressing human EAAT3; L-glutamate as agonist at EC80; Kb from IC50 by Cheng-Prusoff equation. On the procedure:
The FLIPR Membrane Potential (FMP) Assay
HEK-293 cells stably expressing human EAAT3 were seeded at 55 000 cells/well in growth medium (DMEM glutamate free (Invitrogen 11960-044), 1% Pen Strep (10 ml/l GIBCO BRL N°15140-023), 10% FCS non dialysed heat inactivated, 5 mg/l puromycin) in poly-D-lysine treated 96-well black microtiter plates with clear-bottom. After 24 h, the growth medium was removed and 100 μl/well of Krebs buffer (140 mM NaCl, 4.7 mM KCl, 2.5 mM CaCl2, 1.2 mM MgCl2, 11 mM HEPES, 10 mM D-glucose, pH=7.4) added. The cells were then loaded by adding 100 μl/well FMP assay dye (FLIPR Membrane Potential assay reagent, Molecular Devices). The 96-well plates were then incubated at 37° C. for 1 h. The depolarization of the cells will cause more dye to enter in the cells, where it will bind to intracellular proteins and lipids and cause an increase in the fluorescence signal. Antagonist potency at human EAAT3 was determined by using L-glutamate as agonist at a concentration which gives 80% of the maximum response. The antagonists were applied 15 min before the application of the agonist L-glutamate. The assays were performed at room temperature and measurements done by using a Fluorometric Imaging Plate Reader (FLIPR, Molecular Devices) and filter #2. Responses were measured as peak increase in fluorescence minus basal (i.e. fluorescence without addition of L-glutamate). Kb was determined using the Cheng-Prusoff equation Kb=IC50/[1+(A/EC50)], where IC50 is the concentration of the antagonist producing 50% inhibition, A is the concentration of the agonist against which the IC50 is being determined (at EC80) and EC50 is the concentration of the agonist producing 50% […].

Here are results for twelve compounds from patent US10273217B2, “Triazole derivatives” (Hoffmann-La Roche Inc., priority 2015, dated 2019).

For the compound `CCC(C)(C)NC(=O)c1cc(-c2ccc(Cl)cc2)cc(-n2cnnc2C(C)C)c1` [Example 25, 3-(4-Chlorophenyl)-N-(2-methylbutan-2-yl)-5-(3-propan-2-yl-1,2,4-triazol-4-yl)-benzamide], the melting point stood at 103 °C. At human EAAT3, this compound gave a Kb of 120 nM.

Consider `CC(C)(C)NC(=O)c1cc(-c2ccc(Cl)cc2)cc(-n2cnnc2CO)c1` [Example 26, N-tert-Butyl-3-(4-chlorophenyl)-5-[3-(hydroxymethyl)-1,2,4-triazol-4-yl]-benzamide], for which the melting point is 210 °C. For the same compound, at human EAAT3, the Kb is 145 nM.

Take `CC(C)(C)NC(=O)c1cc(-c2ccc(Cl)cc2)cc(-n2cnnc2C(C)(C)O)c1` [Example 27, N-tert-Butyl-3-(4-chlorophenyl)-5-[3-(2-hydroxypropan-2-yl)-1,2,4-triazol-4-yl]-benzamide]: the melting point worked out at 163 °C. The compound also returned a Kb on human EAAT3 of 64 nM.

With `CC(C)c1nncn1-c1cc(C(=O)NC(C)(C)C)cc(-c2ccc(F)c(F)c2)c1` [Example 28, N-tert-Butyl-3-(3,4-difluorophenyl)-5-(3-propan-2-yl-1,2,4-triazol-4-yl)-benzamide], the melting point is 115 °C. For the same compound, the Kb at human EAAT3 turned out to be 160 nM.

The compound `COc1ccc(-c2cc(C(=O)NC(C)(C)C)cc(-n3cnnc3C(C)C)c2)cc1` [Example 29, N-tert-Butyl-3-(4-methoxyphenyl)-5-(3-propan-2-yl-1,2,4-triazol-4-yl)-benzamide] gave a melting point of 107 °C. The same compound had a Kb on human EAAT3 of 290 nM.

`CC(C)c1nncn1-c1cc(C(=O)NC(C)(C)C)cc(-c2ccc(Cl)c(F)c2)c1` [Example 30, N-tert-Butyl-3-(4-chloro-3-fluorophenyl)-5-(3-propan-2-yl-1,2,4-triazol-4-yl)-benzamide] showed a melting point of 135 °C. The compound also came in with a Kb at human EAAT3 of 100 nM.

As to `Cc1cc(-c2cc(C(=O)NC(C)(C)C)cc(-n3cnnc3C(C)C)c2)ccc1F` [Example 31, N-tert-Butyl-3-(4-fluoro-3-methyl-phenyl)-5-(3-propan-2-yl-1,2,4-triazol-4-yl)-benzamide], the melting point amounted to 106 °C. For the same compound, the Kb on human EAAT3 was found to be 98 nM.

The compound `Cc1ccc(-c2cc(C(=O)NC(C)(C)C)cc(-n3cnnc3C(C)C)c2)cc1F` [Example 32, N-tert-Butyl-3-(3-fluoro-4-methyl-phenyl)-5-(3-propan-2-yl-1,2,4-triazol-4-yl)-benzamide] gave a melting point of 109 °C. In addition, the Kb at human EAAT3 came to 120 nM.

`Cc1ccc(-c2cc(C(=O)NC(C)(C)C)cc(-n3cnnc3C(C)C)c2)cc1` [Example 33, N-tert-Butyl-3-(4-methyl-phenyl)-5-(3-propan-2-yl-1,2,4-triazol-4-yl)-benzamide] displayed a melting point of 100 °C. The same compound displayed a Kb at human EAAT3 of 100 nM.

`CC(C)c1nncn1-c1cc(C(=O)NC(C)(C)C)cc(-c2ccc(C#N)cc2)c1` [Example 34, N-tert-Butyl-3-(4-cyano-phenyl)-5-(3-propan-2-yl-1,2,4-triazol-4-yl)-benzamide] registered a melting point of 290 °C. Also, at human EAAT3, the Kb came to 220 nM.

In turn, `CC(C)c1nncn1-c1cc(C(=O)NC(C)(C)C)cc(-c2ccc(C3CC3)cc2)c1` [Example 35, N-tert-Butyl-3-(4-cyclopropyl-phenyl)-5-(3-propan-2-yl-1,2,4-triazol-4-yl)-benzamide] returned a melting point of 120 °C. On human EAAT3, this compound displayed a Kb of 130 nM.

The compound `CC(C)(NC(=O)c1cc(-c2ccc(Cl)cc2)cc(-n2cnnc2CO)c1)C1CC1` [Example 37, 3-(4-Chlorophenyl)-N-(2-cyclopropyl-propan-2-yl)-5-[3-(hydroxymethyl)-1,2,4-triazol-4-yl]-benzamide] returned a melting point of 120 °C. The Kb on human EAAT3 is 150 nM.

As a reminder, the Kb is the affinity of an antagonist, worked out from how it opposes an agonist. High values mean a less potent antagonist, low ones a more potent antagonist. By melting point is commonly meant the temperature, or range, at which the solid turns liquid.
